According to PubChem BioAssay AID1918996 (Molecular Pharmacology Branch, DTP, NCI, 2023):
pIC50: −log10 of the molar value.

System: 349418-098-R-PDC complex spheroid growth
Assay: Anticancer human tumor 349418-098-R-PDC patient-derived lung adenocarcinoma cell line growth inhibition [AhR]
Conditions: for pIC50: curve of first compound; for viability, T/C: stronger effect = lower value
Method in brief: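 Spheroids combined tumor cells with HUVEC endothelial cells and human MSCs as stroma. AhR antagonists were paired with standard or investigational drugs, each dosed in half-log steps down from near clinical Cmax, or from 10 microM where Cmax was unknown.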

[1] = second compound 0.1 µM, first compound 0.0316 µM
[2] = second compound 0.1 µM, first compound 0.1 µM
[3] = second compound 0.1 µM, first compound 0.316 µM
[4] = second compound 0.1 µM, first compound 1 µM
[5] = second compound 0.316 µM, first compound 0.0316 µM
[6] = second compound 0.316 µM, first compound 0.1 µM
[7] = second compound 0.316 µM, first compound 0.316 µM
[8] = second compound 0.316 µM, first compound 1 µM
[9] = second compound 1 µM, first compound 0.0316 µM
[10] = second compound 1 µM, first compound 0.1 µM
[11] = second compound 1 µM, first compound 0.316 µM
[12] = second compound 1 µM, first compound 1 µM
[13] = second compound 3.16 µM, first compound 0.0316 µM
[14] = second compound 3.16 µM, first compound 0.1 µM
[15] = second compound 3.16 µM, first compound 0.316 µM
[16] = second compound 3.16 µM, first compound 1 µM
[17] = second compound 10 µM, first compound 0.0316 µM
[18] = second compound 10 µM, first compound 0.1 µM
[19] = second compound 10 µM, first compound 0.316 µM
[20] = second compound 10 µM, first compound 1 µM
[21] = second compound 0.1 µM, first compound 0.00316 µM
[22] = second compound 0.1 µM, first compound 0.01 µM
[23] = second compound 0.316 µM, first compound 0.00316 µM
[24] = second compound 0.316 µM, first compound 0.01 µM
[25] = second compound 1 µM, first compound 0.00316 µM
[26] = second compound 1 µM, first compound 0.01 µM
[27] = second compound 3.16 µM, first compound 0.00316 µM
[28] = second compound 3.16 µM, first compound 0.01 µM
[29] = second compound 10 µM, first compound 0.00316 µM
[30] = second compound 10 µM, first compound 0.01 µM
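Further: spheroids exposed to agents for seven days before luminescence viability read.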
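Wherever viability, T/C is given: spheroids also contain HUVEC endothelial cells and human MSC stroma.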

O=C(C=Cc1cccc(S(=O)(=O)Nc2ccccc2)c1)NO + Cc1cncc(-c2nc(NCCc3c[nH]c4ccccc34)c3ncn(C(C)C)c3n2)c1
pIC50 (second compound 0.1 µM): 6.17 | pIC50 (second compound 0.316 µM): 6.28 | pIC50 (second compound 1 µM): 6.22 | pIC50 (second compound 3.16 µM): > 7.50 | pIC50 (second compound 10 µM): > 7.50 | viability, T/C [1]: 90.6% | viability, T/C [2]: 79.1% | viability, T/C [3]: 67.8% | viability, T/C [4]: 43.2% | viability, T/C (second compound 0.1 µM, first compound 3.16 µM): 13.2% | viability, T/C (second compound 0.1 µM, first compound 10 µM): 1.82% | viability, T/C [5]: 85.2% | viability, T/C [6]: 68.9% | viability, T/C [7]: 59.3% | viability, T/C [8]: 43.5% | viability, T/C (second compound 0.316 µM, first compound 3.16 µM): 11.3% | viability, T/C (second compound 0.316 µM, first compound 10 µM): 1.83% | viability, T/C [9]: 76.4% | viability, T/C [10]: 75.8% | viability, T/C [11]: 61.1% | viability, T/C [12]: 41.3% | viability, T/C (second compound 1 µM, first compound 3.16 µM): 10.3% | viability, T/C (second compound 1 µM, first compound 10 µM): 1.94% | viability, T/C [13]: 30.8% | viability, T/C [14]: 34.8% | viability, T/C [15]: 37.9% | viability, T/C [16]: 22.7% | viability, T/C (second compound 3.16 µM, first compound 3.16 µM): 7.91% | viability, T/C (second compound 3.16 µM, first compound 10 µM): 1.33% | viability, T/C [17]: 3.17% | viability, T/C [18]: 3.68% | viability, T/C [19]: 2.97% | viability, T/C [20]: 1.98% | viability, T/C (second compound 10 µM, first compound 3.16 µM): 1.53% | viability, T/C (second compound 10 µM, first compound 10 µM): 0.75%

CC1COCCN1c1cc(-c2ccnn2C)c2ccnc(-c3ccn[nH]3)c2n1 (stereo not given) + Cc1ccccc1N=Nc1ccc(NC(=O)c2ccnn2C)c(C)c1
pIC50 (second compound 0.1 µM): 7.15 | pIC50 (second compound 0.316 µM): 6.99 | pIC50 (second compound 1 µM): 7.14 | pIC50 (second compound 3.16 µM): 7.15 | pIC50 (second compound 10 µM): 7.41 | viability, T/C [21]: 84.5% | viability, T/C [22]: 96.5% | viability, T/C [1]: 61% | viability, T/C [2]: 47.9% | viability, T/C [3]: 13.9% | viability, T/C [4]: 10.5% | viability, T/C [23]: 64.4% | viability, T/C [24]: 96.8% | viability, T/C [5]: 81% | viability, T/C [6]: 50.3% | viability, T/C [7]: 15.6% | viability, T/C [8]: 10.4% | viability, T/C [25]: 107% | viability, T/C [26]: 111% | viability, T/C [9]: 78.6% | viability, T/C [10]: 39.4% | viability, T/C [11]: 15.8% | viability, T/C [12]: 11.3% | viability, T/C [27]: 61.6% | viability, T/C [28]: 78.2% | viability, T/C [13]: 76.2% | viability, T/C [14]: 40.5% | viability, T/C [15]: 18.6% | viability, T/C [16]: 11.9% | viability, T/C [29]: 60.4% | viability, T/C [30]: 61.9% | viability, T/C [17]: 55.4% | viability, T/C [18]: 26.9% | viability, T/C [19]: 17.3% | viability, T/C [20]: 12.9%

Nc1ncn(C2CC(O)C(CO)O2)c(=O)n1 (stereo not given) + CC(CO)NC(=O)c1cc(-c2ccc(Cl)cc2)nn(-c2cnn(C)c2)c1=O
pIC50 (second compound 0.1 µM): 6.87 | pIC50 (second compound 0.316 µM): 7.20 | pIC50 (second compound 1 µM): 7.04 | pIC50 (second compound 3.16 µM): 6.99 | pIC50 (second compound 10 µM): 7.35 | viability, T/C [21]: 101% | viability, T/C [22]: 90.6% | viability, T/C [1]: 73.4% | viability, T/C [2]: 55.2% | viability, T/C [3]: 36.6% | viability, T/C [4]: 23.8% | viability, T/C [23]: 108% | viability, T/C [24]: 106% | viability, T/C [5]: 72% | viability, T/C [6]: 35% | viability, T/C [7]: 43.1% | viability, T/C [8]: 25.7% | viability, T/C [25]: 78.6% | viability, T/C [26]: 67.3% | viability, T/C [9]: 67.9% | viability, T/C [10]: 41.6% | viability, T/C [11]: 43.3% | viability, T/C [12]: 28.9% | viability, T/C [27]: 55.4% | viability, T/C [28]: 64.9% | viability, T/C [13]: 84.4% | viability, T/C [14]: 50.6% | viability, T/C [15]: 30% | viability, T/C [16]: 26.8% | viability, T/C [29]: 51.9% | viability, T/C [30]: 63.9% | viability, T/C [17]: 49.8% | viability, T/C [18]: 43.2% | viability, T/C [19]: 24.8% | viability, T/C [20]: 20.1%

CC[C@@]1(O)C(=O)OCc2c1cc1n(c2=O)Cc2cc3c(CN(C)C)c(O)ccc3nc2-1 + Cc1ccccc1N=Nc1ccc(NC(=O)c2ccnn2C)c(C)c1
pIC50 (second compound 0.1 µM): 7.78 | pIC50 (second compound 0.316 µM): 7.95 | pIC50 (second compound 1 µM): 7.87 | pIC50 (second compound 3.16 µM): 8.08 | pIC50 (second compound 10 µM): 8.21 | viability, T/C (second compound 0.1 µM, first compound 0.000316 µM): 116% | viability, T/C (second compound 0.1 µM, first compound 0.001 µM): 101% | viability, T/C [21]: 112% | viability, T/C [22]: 65.9% | viability, T/C [1]: 29.3% | viability, T/C [2]: 13% | viability, T/C (second compound 0.316 µM, first compound 0.000316 µM): 95% | viability, T/C (second compound 0.316 µM, first compound 0.001 µM): 104% | viability, T/C [23]: 98.5% | viability, T/C [24]: 52.8% | viability, T/C [5]: 25.5% | viability, T/C [6]: 17% | viability, T/C (second compound 1 µM, first compound 0.000316 µM): 130% | viability, T/C (second compound 1 µM, first compound 0.001 µM): 76.9% | viability, T/C [25]: 98% | viability, T/C [26]: 57.3% | viability, T/C [9]: 22.5% | viability, T/C [10]: 17.2% | viability, T/C (second compound 3.16 µM, first compound 0.000316 µM): 64.5% | viability, T/C (second compound 3.16 µM, first compound 0.001 µM): 63.3% | viability, T/C [27]: 79.1% | viability, T/C [28]: 46.5% | viability, T/C [13]: 19.1% | viability, T/C [14]: 15.4% | viability, T/C (second compound 10 µM, first compound 0.000316 µM): 66.8% | viability, T/C (second compound 10 µM, first compound 0.001 µM): 65.1% | viability, T/C [29]: 68.7% | viability, T/C [30]: 38.2% | viability, T/C [17]: 22.2% | viability, T/C [18]: 17.5%
